Source: patent publication US20180161366A1, “METHODS OF OBTAINING MONONUCLEAR BLOOD CELLS AND USES THEREOF” (Biokine Therapeutics Ltd., priority 2015, published 2018)
“And” between values parts separate entries of the source, which are not always exact repeats. Equal values may be shown once. Read-outs that look alike come from different tables or passages of the source. Non-standard residues stand in square brackets, D forms with d. *: point of attachment. Benzoyl(4-F) = O=C(c1ccc(F)cc1)*; Cit = NC(=O)NCCC[C@H](N)C(=O)O

Legend:
C57BL/6 mice = experiment: BL8040-induced mobilization of T cell subsets in naive mice or mice bearing pancreatic or melanoma cancer; format: in vivo; settings: 400 μg/mouse SC
Method: Six-to 8-week-old female or male C57BL/6 were purchased from Harlan laboratories. Mice were maintained and all animal experiments were conducted according to the protocols approved by the institutional animal care of the Hebrew university.
Female C57BL/6 mice were inoculated subcutaneously at the right flank with 1× 10^6 B16F10 cells in 0.1 mL PBS. When tumors reached 90 to 150 mm^2 in size (after two weeks), mice were treated with BL-8040, according to the below regimen.
1.5×10^6 Livmet cells/10 μl PBS and 10 μl Matrigel (BD Biosciences) were injected into the pancreas of male C57BL/6 mice. Mice were treated with BL8040, 3 weeks after the injection.
BL8040 (400 μg/mouse dissolved in phosphate-buffered saline) was administered once by subcutaneous injection and 2 h later the blood was collected into tube with heparin.
Fluorescent-activated cell sorting analysis was performed on whole blood (day 0) and expanded cells (day 10).
Whole blood was treated with red blood cell lysis solution (0 155 M NH4Cl, 0.01 M KHCO3, 0.01 mmol/l EDTA, pH 7.4) in order to lyse the erythrocytes. Isolated cells were washed with PBS, re-suspended with 0.1 ml of PBS and stained with fluorescent antibodies directed against specific surface markers.
Cells were incubated with mobs: CD8-PE, CD4-APC, CD3-FITC, CD25-PE-Cy7, CD69-PerCP, CD44-PE-Cy7, CD137-PE-Cy7, CD279-FITC, CD62L-FITC and CD223-FITC (eBioscience).

healthy subjects [1] = format: in vivo; settings: for Mean CD34+ count (HSPC): four hours post first administration, baseline 5.8/μL, placebo 8; for Mean count of CD34+ HSPC: four hours post second administration, placebo 9
Method: (§1) White blood cell count—Blood count assays were performed using Beckman-Coulter analyzers (GENS,750,000).
(§2) Flow cytometry—Cells (100 μl) were stained for 30 minutes in 0.1 ml FACS buffer with fluorescence antibodies directed against Human CD3, CD19, CD56, CD4, CD8, CCR7, CD83, lin-cocktail, CD11c, CD45RA, CD25, /Foxp3+, CD16, CD34, CD38 CD105 or matched isotype controls and mouse CD3, and B220 all from eBioscience San Diego, Calif. 92121 USA. Following staining the cells were washed with FACS buffer and analyzed by flow cytometry (5 μl per sample) using the FACS Caliber Flow Cytometer (BD Biosciences). Data was analyzed using software from CellQuest (version 3.3; BD Biosciences). Cells were first gated according to the forward scatter and side scatter parameters to exclude dead cells and the number and percent of each cell population (e.g. HSPCs, T cells, B cells, NK cells, NKT cells and DCs) was analyzed.
The first part of the study was a randomized, double-blind, placebo-controlled dose escalation. […] After obtaining informed consent, BL-8040 was administered subcutaneously (SC) once daily on 2 consecutive days at a dose of 0.5, 0.75 or 1 mg/kg.

CXCR4 receptor = CXCR4 receptor (Homo sapiens, UniProt P61073); settings: cited from earlier work
Sequence of CXCR4 receptor (P61073 whole entry): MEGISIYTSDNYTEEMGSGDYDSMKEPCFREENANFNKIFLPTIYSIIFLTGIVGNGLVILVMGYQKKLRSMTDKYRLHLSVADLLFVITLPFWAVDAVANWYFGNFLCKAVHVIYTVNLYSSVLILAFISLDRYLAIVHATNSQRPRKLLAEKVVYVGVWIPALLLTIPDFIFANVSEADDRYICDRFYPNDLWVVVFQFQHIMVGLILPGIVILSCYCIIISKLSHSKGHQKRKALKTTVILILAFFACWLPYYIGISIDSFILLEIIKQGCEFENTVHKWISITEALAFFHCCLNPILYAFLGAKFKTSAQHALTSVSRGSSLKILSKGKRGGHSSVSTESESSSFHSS

[2] = test system: myeloid leukemia, hematopoietic tumors and non-small cell lung cancer; settings: cited from earlier work
C57BL mice = experiment: Number of CD3+ T cells and B220+ B cells in spleen and peripheral lymph nodes of mice (FIG. 4); format: in vivo, mouse; settings: 5 mg/kg
Method: FIG. 4 are graphs presenting the number of CD3+ T cells and B220+ B cells in spleen and peripheral lymph nodes (PLN) of C57BL mice prior (denoted as control) and following administration of 5 mg/kg BL-8040, as determined by flow cytometry.
as §2

healthy subjects [3] = experiment: Open label single injection of BL-8040 followed by leukapheresis: composition of collected graft and kinetics of WBC, ImDC and T cells; format: in vivo, human
Method: (§3) FIG. 1 is a graph illustrating kinetic analysis of the effect of BL-8040 administration on mobilization of white blood cells (WBC) to the peripheral blood. The figure presents a time course of total WBC in the peripheral blood of subjects in response to a single SC administration of 1 mg/kg BL-8040 as determined by flow cytometry.
as §3, with “FIG. 2” for “FIG. 1”, “of immature dendritic” for “of white blood”, “cells (ImDC)” for “cells (WBC)”, “of ImDC” for “of total WBC”
as §3, with “FIG. 3” for “FIG. 1”, “of CD3+ T” for “of white blood”, “cells” for “cells (WBC)”, “of CD3+ T” for “of total WBC”
Leukapheresis—The leukapheresis procedure was commenced approximately 4 hours (±1 hour) post BL-8040 injection. Eighteen (18) Liter apheresis was collected at a Bone Marrow Transplant unit using the Spectra Optia® Apheresis System.
as §1, §2
The second part of the study was an open label test. 8 healthy subjects received a single injection of BL-8040 (1 mg/kg) and 3-4 hours later were subjected to a standard leukapheresis (18 L) procedure. The composition of the collected graft was tested for the number of WBCs per kg, number of CD34+ HSPC per kg and number and type of T cells, B cells, NK cells and dendritic cells (DC) per kg.

mice = settings: single injection; cited from earlier work
[4] = peripheral blood, 0.5-1 mg/kg SC

## 4F-benzoyl-Arg-Arg-Nal-Cys-Tyr-Cit-Lys-DLys-Pro-Tyr-Arg-Cit-Cys-Arg-NH2 ({Benzoyl(4-F)}-RR[Nal]CY[Cit]K[dK]PYR[Cit]CR-NH2; not fully specified; printed as 4F-benzoyl-Arg-Arg-Nal-Cys-Tyr-Cit-Lys-DLys-Pro-Tyr-Arg-Cit-Cys-Arg-NH2; also: cyclised, bridge not given here) [BL-8040]
C57BL/6 mice; cancerous mice vs naive mice, FIG. 6B
  CD69+ CD25+ activated T cells in collected cells: more CD69+ CD25+ activated T cells
C57BL/6 mice; tumor bearing mice vs non injected or naive mice, blood 2 h later, FIG. 6A
  mobilization of CD4 and CD8 cells: increased mobilization of both CD4 and CD8 cells
Healthy subjects [1]; 4 hr post BL-8040 administration, baseline 6.3
  mean WBC count: 2.97e+10 L⁻¹
Healthy subjects [1]; 0.5 mg/kg
  Mean CD34+ count (HSPC): 37 cells/μL
  Mean count of CD34+ HSPC: 38 cells/μL
Healthy subjects [1]; 0.75 mg/kg
  Mean CD34+ count (HSPC): 31 cells/μL
  Mean count of CD34+ HSPC: 46 cells/μL
Healthy subjects [1]; 1 mg/kg
  Mean CD34+ count (HSPC): 35 cells/μL
  Mean count of CD34+ HSPC: 58 cells/μL
Healthy subjects [1]; healthy subjects, SC once daily on 2 consecutive days, all doses tested (0.5-1 mg/kg)
  safety and tolerability: safe and well tolerated
Healthy subjects [1]; healthy subjects, SC, 0.5-1 mg/kg
  primary treatment related adverse effects: mild to moderate transient injection site and systemic reactions
Healthy subjects [1]; [4]
  mobilization of MSC and HPC colony forming cells: rapid mobilization
  mobilization of T, B and NK cells: substantial mobilization
Healthy subjects [1]; post dosing
  duration of CXCR4 receptor occupancy and pharmacodynamic effect: ≥ 24 h
CXCR4 receptor
  binding to the CXCR4 receptor: high affinity and long receptor occupancy
[2]
  toxicity against tumors: toxic against several tumors
C57BL mice
  source of mobilized T cells (spleen and peripheral lymph nodes counts): T cells are mobilized from the lymph node into the blood
Healthy subjects [3]; 3.5-8 hours following 1 mg/kg
  B cells (CD19+), % of graft: 13.1%
  B cells (CD19+), median: 2.03 × 10^8/Kg and 2.03 (0.32-2.6) × 10^8/Kg
  Central memory CD4 T cells (CD3+/CD4+ CD45RA−/CCR7+), % of CD4+ cells: 37.99%
  Central memory CD8 T cells (CD3+/CD8+ CD45RA−/CCR7+), % of CD8 cells: 33.1%
  Cytotoxic T cells (CD3+CD8+), % of graft: 22.5%
  Cytotoxic T cells (CD3+CD8+), median: 2.89 × 10^8/Kg and 2.89 (1.7-4.9) × 10^8/Kg
  Effector CD4 T cells (CD3+/CD4+ CD45RA+/CCR7−), % of CD4+ cells: 6.24%
  Effector CD8 T cells (CD3+/CD8+ CD45RA+/CCR7−), % of CD8 cells: 1.09%
  Effector memory CD4 T cells (CD3+/CD4+ CD45RA−/CCR7−), % of CD4+ cells: 21.19%
  Effector memory CD8 T cells (CD3+/CD8+ CD45RA−/CCR7−), % of CD8 cells: 1.94%
  HSPC (CD34+), % of graft: 0.78%
  HSPC (CD34+), median: 11.89 × 10^6/Kg and 11.89 (5.1-15.0) × 10^6/Kg
  Immature DCs (lin-CD11c+CD83−), % of graft: 0.95%
  Immature DCs (lin-CD11c+CD83−), median: 1.16e+07 kg⁻¹
  NK cells (CD3−CD56+), % of graft: 4.76%
  NK cells (CD3−CD56+), median: 0.53 × 10^8/Kg and 0.53 (0.15-1.55) × 10^8/Kg
  NKT cells (CD3+CD56+), % of graft: 1.2%
  NKT cells (CD3+CD56+), median: 9.8e+06 kg⁻¹
  Naïve CD4 T cells (CD3+/CD4+ CD45RA+/CCR7+), % of CD4+ cells: 34.61%
  Naïve CD8 T cells (CD3+/CD8+ CD45RA+/CCR7+), % of CD8 cells: 63.89%
  Regulatory T cells (CD4+CD25+Foxp3+), % of graft: 1.28%
  Regulatory T cells (CD4+CD25+Foxp3+), median: 1.61e+07 kg⁻¹
  T cells (CD3+), % of graft: 48.08%
  T cells (CD3+), median: 7.32 × 10^8/Kg and 7.32 (4.0-8.5) × 10^8/Kg
  T helper cells (CD3+CD4+), % of graft: 21.7%
  T helper cells (CD3+CD4+), median: 3.3 × 10^8/Kg and 3.3 (1.44-3.9) × 10^8/Kg
Healthy subjects [3]; 24 hours following administration, FIG. 3
  number of T cells in the periphery at 24 hours: remains high
Healthy subjects [3]; following administration of BL-8040
  time at which number of T cells in the periphery started to decline: 48 h
Healthy subjects [3]; ratio of medians
  Fold Difference (BL-8040/AMD3100), B cells CD19: 2.00
  Fold Difference (BL-8040/AMD3100), Cytotoxic T cells CD3+CD8+: 2.22
  Fold Difference (BL-8040/AMD3100), HSPC CD34+: 4.10
  Fold Difference (BL-8040/AMD3100), NK cells CD3−CD56+: 1.77
  Fold Difference (BL-8040/AMD3100), T cells CD3+: 1.59
  Fold Difference (BL-8040/AMD3100), T helper cells CD3+CD4+: 1.03
  Fold Difference (BL-8040/G-CSF), Cytotoxic T cells CD3+CD8+: 7.23
  Fold Difference (BL-8040/G-CSF), HSPC CD34+: 2.83
  Fold Difference (BL-8040/G-CSF), NK cells CD3−CD56+: 2.65
  Fold Difference (BL-8040/G-CSF), T cells CD3+: 5.63
  Fold Difference (BL-8040/G-CSF), T helper cells CD3+CD4+: 3
Healthy subjects [3]; single 1 mg/kg SC, FIG. 1
  increase in the total number of WBC: 5-7 fold
Healthy subjects [3]; single administration, FIGS. 2-3
  time within which mobilization of DCs and T cells occurs: 3 to 4 h
mice
  mobilization of long term repopulating stem cells: mobilized long term repopulating stem cells sufficient for transplantation
